Results on 8 molecules are retold here after patent US5079260A, “Method for treating inflammation and compounds and compositions suitable for use therein” (Nova Pharmaceutical Corporation, priority 1990, dated 1992).

Assay [1] deals with Reverse Passive Artus Reaction. Description: Reverse Passive Artus Reaction (II), Table 11. It is filed as in vivo, Male CD rats. Conditions: inhibition of blueing; i.p., 100 mg/kg. The procedure: Reverse Passive Artus Reaction (II) Male CD rats weighing between 200 and 250 g were used. […] The animals were anesthetized inhalationally with isoflurane and then injected through the penile vein with 1 mL of a solution of 2.5 mg of Evan's blue dye and 5.0 mg of human serum albumin in 1 mL of saline. This treatment was followed immediately by intracutaneous injections of 0.03 mL of anti-human albumin diluted to contain 3.65 mg of antibody at 3 sites along the midline back. Anesthesia was terminated and after three hours, the animals were sacrificed. The skin was removed and the blue stained areas cut out. The skin patches were soaked overnight in stoppered tubes containing 1 mL of 1 N potassium hydroxide at 37° C. Then 9 mL of a mixture of five parts of a 0.6 N phosphoric acid and thirteen parts of acetone were added to the tubes. The tube contents were agitated and centrifuged, and the absorbance measured at 620 nm. The data were calculated as inhibition of blueing by test compound compared to control animals receiving only antigen and antibody.

In assay [2] the test system is Ear Edema Caused by Arachidonic Acid. Description: Inhibition of Ear Edema Caused by Arachidonic Acid (II), Table 8. The class given is in vivo, CF-1 mice. Conditions: i.p., sixty minutes. The procedure:
Inhibition of Ear Edema Caused by Arachidonic Acid (II)
CF-1 mice, 25-30 g body weight, six animals per group, were used. The requisite amount of the test compound was dissolved is dimethyl sulfoxide or 0.5% methylcellulose and 100 μL of the solution was injected intraperitoneally 30 minutes prior to the administration of 100 mg/kg of arachidponic acid. A solution of this irritant, b 100 mg/mL in ethanol, was applied to the surface of the ear, 5 μL to the upper surface and 5 μL to the lower surface. After sixty minutes, the thickness of the ear was measured to 0.01 mm by a micrometer with the loose drag positioned at the lateral-most edge of the mid-point of the pinna. Data were calculated as the percent inhibityion by the test compound of increased ear thickness compared to control animals recieveing only the irritant.

For assay [3], the system named is Ear Edema Caused by Xylene. Description: Inhibition of Ear Edema Caused by Xylene (II), Table 9. It is filed as in vivo, CF-1 mice. The note with it: i.p., 2 h. Summed up: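 CF-1 mice (25-30 g, six per group) received compound i.p. in DMSO or 0.5% methylcellulose 30 min before xylene was applied to both ear surfaces. Ear thickness was measured by micrometer 2 h later. Values are percent inhibition of the increase in ear thickness versus irritant-only controls.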

The subject of assay [4] is Ear Edema Caused by Oxazolone. The assay can be described thus: Inhibition of Ear Edema Caused by Oxazolone (II), Table 10. It is filed as in vivo, CF-1 mice. The note with it: i.p., 24 h.
Assay [5] relates to Ear Edema Caused By Tetradecanoylphorbol Acetate. The assay can be described thus: Inhibition of Ear Edema Caused by Tetradecanoylphorbol Acetate (II), Table 7. It is filed as in vivo, CF-1 Mice. Conditions: i.p., 3 h.

Usually % Inhibition stands for how much of the control response was suppressed. Low readings indicate little suppression, high ones strong suppression. `CCCC[C@H](NC(=O)OCC1c2ccccc2-c2ccccc21)C(=O)O` [NPC 15667, N-[9H-(Fluorenyl-9-ylmethoxy)carbonyl]-L-norleucine]: the “% Inhibition Intraperitoneal” value is 63% in assay [1]; 7% in assay [2] (10 mg/kg); 57% in assay [2] (30 mg/kg); 65% in assay [2] (100 mg/kg); 13% in assay [4] (10 mg/kg); 15% in assay [4] (30 mg/kg). In addition, the “% Inhibition Intraperitoneal” value is 71% in assay [4] (100 mg/kg), -80% in assay [5] (10 mg/kg) and 72% in assay [5] (30 mg/kg). Also, the “% Inhibition” value in assay [3] (10 mg/kg) stood at 22%; in assay [3] (30 mg/kg) it was 57%; in assay [3] (100 mg/kg) it was 80%.

Take `Cc1ccc2c(c1)C(COC(=O)N[C@@H](CC(C)C)C(=O)O)c1cc(C)ccc1-2` [NPC 15669, N-{[9H-(2,7-Dimethylfluoren-9-yl)methoxy]-carbonyl}-L-leucine]: the “% Inhibition Intraperitoneal” value is on record as 60% in assay [1]; 12% in assay [2] (10 mg/kg); 22% in assay [2] (30 mg/kg); 60% in assay [2] (100 mg/kg); -40% in assay [4] (10 mg/kg); 84% in assay [4] (30 mg/kg). Also, the “% Inhibition Intraperitoneal” value turned out to be 84% in assay [4] (100 mg/kg), 43% in assay [5] (10 mg/kg), 27% in assay [5] (30 mg/kg) and 133% in assay [5] (100 mg/kg). Moreover, the “% Inhibition” value came to 12% in assay [3] (10 mg/kg), 22% in assay [3] (30 mg/kg) and 60% in assay [3] (100 mg/kg).

Regarding `Cc1ccc2c(c1)C(CCC(=O)N[C@@H](CC(C)C)C(=O)O)c1ccccc1-2` (stereo partly drawn) [NPC 15671, N-{9H-[3-(2-Methylfluoren-9-yl)propionyl]}-L-leucine], the “% Inhibition Intraperitoneal” value is recorded as 13% in assay [1]; 40% in assay [2] (10 mg/kg); 19% in assay [2] (30 mg/kg); 56% in assay [2] (100 mg/kg); 5% in assay [4] (10 mg/kg); 20% in assay [4] (30 mg/kg). The “% Inhibition Intraperitoneal” value came out at 69% in assay [4] (100 mg/kg), 41% in assay [5] (10 mg/kg), 31% in assay [5] (30 mg/kg) and 66% in assay [5] (100 mg/kg). The “% Inhibition” value in assay [3] (10 mg/kg) amounted to 6%; in assay [3] (30 mg/kg), 10%; in assay [3] (100 mg/kg), 18%.

On to `COCc1cccc2c1C(COC(=O)N[C@@H](CC(C)C)C(=O)O)c1ccccc1-2` (stereo partly drawn) [NPC 15673, N-{[9H-(1-Methoxymethylfluoren-9-yl)methoxy]carbonyl}-L-leucine], for which the “% Inhibition Intraperitoneal” value was determined as 46% in assay [1]; 24% in assay [2] (10 mg/kg); 27% in assay [2] (30 mg/kg); 58% in assay [2] (100 mg/kg); 0% in assay [4] (10 mg/kg); 12% in assay [4] (30 mg/kg). Moreover, the “% Inhibition Intraperitoneal” value was 18% in assay [4] (100 mg/kg), 0% in assay [5] (10 mg/kg), 33% in assay [5] (30 mg/kg) and 60% in assay [5] (100 mg/kg). The results for the “% Inhibition” value in assay [3] (10 mg/kg), in assay [3] (30 mg/kg) and in assay [3] (100 mg/kg) were 20%, 26% and 29%, respectively.

In the case of `CC(C)(C)C[C@H](NC(=O)OCC1c2ccccc2-c2ccccc21)C(=O)O` [NPC 15676, N-[(9H-Fluoren-9-ylmethoxy)carbonyl]-L--neopentylglycine quarter hydrate], the “% Inhibition Intraperitoneal” value in assay [1] is reported as 82%; in assay [2] (10 mg/kg) it was 20%; in assay [2] (30 mg/kg), 44%; in assay [2] (100 mg/kg) it was 79%; in assay [4] (10 mg/kg) it was 0%; in assay [4] (30 mg/kg) it was 4%. Further, the “% Inhibition Intraperitoneal” value in assay [4] (100 mg/kg) came to 50%; in assay [5] (10 mg/kg), 0%; in assay [5] (30 mg/kg) it was 20%; in assay [5] (100 mg/kg), 16%. Also, the “% Inhibition” value in assay [3] (10 mg/kg) is listed as 26%; in assay [3] (30 mg/kg), 12%; in assay [3] (100 mg/kg), 44%.

Regarding `CC(C)(C)[C@H](NC(=O)CCC1c2ccccc2-c2ccccc21)C(=O)O` [NPC 15685, N-[3-(9H-Fluoren-9-yl)propionyl]-L-tert-leucine, quarter hydrate], the “% Inhibition Intraperitoneal” value was 42% in assay [1]; 44% in assay [2] (10 mg/kg); 61% in assay [2] (30 mg/kg); 69% in assay [2] (100 mg/kg); 0% in assay [4] (10 mg/kg); 30% in assay [4] (30 mg/kg). The “% Inhibition Intraperitoneal” value in assay [4] (100 mg/kg) is recorded as 30%; in assay [5] (10 mg/kg) it was 0%; in assay [5] (30 mg/kg) it was 16%; in assay [5] (100 mg/kg), 67%. Besides, the “% Inhibition” value in assay [3] (10 mg/kg) is 5%; in assay [3] (30 mg/kg), 23%; in assay [3] (100 mg/kg), 18%.

Regarding `Cc1cccc2c1C(CCC(=O)N[C@H](C(=O)O)C(C)(C)C)c1ccccc1-2` (stereo partly drawn) [NPC 15885, N-{9H-[3-(1-Methylfluoren-9-yl)propionyl]}-L-tert-leucine, quarter hydrate], the “% Inhibition Intraperitoneal” value in assay [1] is reported as 49%; in assay [2] (10 mg/kg), 52%; in assay [2] (30 mg/kg), 71%; in assay [2] (100 mg/kg) it was 79%; in assay [4] (10 mg/kg) it was 1%; in assay [4] (30 mg/kg), 8%. Besides, the “% Inhibition Intraperitoneal” value in assay [4] (100 mg/kg) is 36%; in assay [5] (10 mg/kg), 70%; in assay [5] (30 mg/kg), 77%; in assay [5] (100 mg/kg), 80%. In addition, the “% Inhibition” value in assay [3] (10 mg/kg) came to 39%; in assay [3] (30 mg/kg), 49%; in assay [3] (100 mg/kg), 48%.

On to `CC(C)(SCc1ccccc1)[C@@H](NC(=O)OCC1c2ccccc2-c2ccccc21)C(=O)O` [NPC 15953, S-Benzyl-β,β-dimethyl-N-[9H-(fluoren-9-ylmethoxy)carbonyl]-D-cystein], for which the “% Inhibition Intraperitoneal” value in assay [1] amounted to 68%; in assay [2] (10 mg/kg), 46%; in assay [2] (30 mg/kg), 66%; in assay [2] (100 mg/kg), 60%; in assay [4] (10 mg/kg) it was 0%; in assay [4] (30 mg/kg) it was 28%. The “% Inhibition Intraperitoneal” value was 79% in assay [4] (100 mg/kg), 64% in assay [5] (10 mg/kg), 87% in assay [5] (30 mg/kg) and 95% in assay [5] (100 mg/kg). Besides, the figures for the “% Inhibition” value in assay [3] (10 mg/kg), in assay [3] (30 mg/kg) and in assay [3] (100 mg/kg) were 46%, 66% and 60%, respectively.
